In paper PMC10117764, “The roles of serine hydrolases and serum albumin in alisol B 23-acetate hydrolysis in humans” (Frontiers in Pharmacology, 2023):
Where “and” joins values, the source holds several entries; their conditions need not be identical. Equal values may be shown once.

What was measured:
[1] = Hydrolytic half-life of AB23A in human intestine microsomes; assay type: in vitro ADME; conditions: human intestine microsomes (HIMs), HIMs 0.1 mg/mL, PBS pH 7.4, read-out: t1/2 (hydrolytic/metabolic half-life)
Method: The hydrolytic half-lives (t1/2) of AB23A in human plasma and different human tissue preparations were carried out according to the procedure of in vitro metabolic stability studies ([Ge et al., 2013]). The incubation mixture (1,000 μL) consisted of PBS (pH 7.4), enzyme sources (HLMs/HIMs/human plasma) and AB23A. 25% diluted human plasma was used, the protein concentrations of other tissue microsomes were 0.1 mg/mL. The 100 μL incubation mixture was moved to another containing ice-cold acetonitrile tube at different time points (0, 5, 15, 30, 45, 60, 90, 120 min). All samples were centrifuged for 30 min at 20,000 g 4°C and took the supernatants for LC-UV analysis.
The incubation conditions were as follows: the classic incubation system included 100 mM potassium phosphate buffer (PBS, pH 7.4), enzyme sources, and AB23A. In all incubations, PBS and enzyme sources were pre-incubation at 37 °C for 3 min and the reaction was started by adding AB23A (the organic solvent content at most 1%). After reacting 1 h, ice-cold acetonitrile was added to terminate the reaction and precipitate proteins. The samples were centrifuged for 30 min at 20000 × g, 4 °C, and the supernatants were taken for further LC-UV analysis.

[2] = Hydrolytic half-life of AB23A in pig liver microsomes; assay type: in vitro ADME; conditions: pig liver microsomes (PLMs), pH 7.4, PLMs 0.10 mg/mL, read-out: T1/2 (hydrolytic half-life)
[3] = biological target: T1, hCES1A (Homo sapiens, UniProt P23141); test: Kinetic analysis of AB23A hydrolysis in hCES1A; assay type: in vitro ADME; conditions: 1 h incubation
T1 construct: 10xHis; made in house; host or cells: HEK293-F cells, pTT5 vector, purified from conditioned medium
T1 sequence (P23141 18-563): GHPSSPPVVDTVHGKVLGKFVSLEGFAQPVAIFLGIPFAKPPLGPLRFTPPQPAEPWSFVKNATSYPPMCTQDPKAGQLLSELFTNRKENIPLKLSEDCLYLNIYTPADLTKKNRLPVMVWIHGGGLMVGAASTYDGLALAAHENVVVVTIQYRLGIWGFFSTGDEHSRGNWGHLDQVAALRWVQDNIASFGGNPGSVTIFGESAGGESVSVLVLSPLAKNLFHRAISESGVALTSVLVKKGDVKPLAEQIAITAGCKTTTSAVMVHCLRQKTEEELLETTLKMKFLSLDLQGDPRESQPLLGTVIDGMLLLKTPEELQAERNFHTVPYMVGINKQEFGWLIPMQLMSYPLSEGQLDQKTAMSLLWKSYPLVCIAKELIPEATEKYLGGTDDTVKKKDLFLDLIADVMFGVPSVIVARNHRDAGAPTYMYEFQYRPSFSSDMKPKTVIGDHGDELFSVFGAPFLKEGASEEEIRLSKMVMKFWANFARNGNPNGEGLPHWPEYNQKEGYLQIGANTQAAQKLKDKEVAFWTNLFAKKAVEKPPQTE
Method: (§1) The enzymatic kinetics of AB23A hydrolysis in different tissue preparations (HLMs, HIMs, human plasma) and human recombinant enzymes (hCES1A, hCES2A, hSA, hBchE) were analyzed. The incubation system (200 μL) consisted of PBS, each tested enzyme, and AB23A (ranging from 0 to 1,000 μM). After incubating for 1 h, the supernatants were then used for LC-UV analysis. The kinetic parameters of AB23A hydrolysis were fitted by the following Michaelis−Menten Eq. 1 ([Zhang et al., 2022]). V=(Vmax×[S])⁄(Km+[S]) (1) Here, K m is the Michaelis constant of AB23A hydrolysis, V max is the maximum velocity of AB23A hydrolysis, V max /K m is used to calculate the intrinsic clearance (CL int ).

[4] = biological target: T2, hCES2A (Homo sapiens, UniProt O00748); test: Kinetic analysis of AB23A hydrolysis in hCES2A; assay type: in vitro ADME; conditions: 1 h incubation
T2 construct: 10xHis; made in house; host or cells: HEK293-F cells, pTT5 vector, purified from conditioned medium
T2 sequence (O00748 27-559): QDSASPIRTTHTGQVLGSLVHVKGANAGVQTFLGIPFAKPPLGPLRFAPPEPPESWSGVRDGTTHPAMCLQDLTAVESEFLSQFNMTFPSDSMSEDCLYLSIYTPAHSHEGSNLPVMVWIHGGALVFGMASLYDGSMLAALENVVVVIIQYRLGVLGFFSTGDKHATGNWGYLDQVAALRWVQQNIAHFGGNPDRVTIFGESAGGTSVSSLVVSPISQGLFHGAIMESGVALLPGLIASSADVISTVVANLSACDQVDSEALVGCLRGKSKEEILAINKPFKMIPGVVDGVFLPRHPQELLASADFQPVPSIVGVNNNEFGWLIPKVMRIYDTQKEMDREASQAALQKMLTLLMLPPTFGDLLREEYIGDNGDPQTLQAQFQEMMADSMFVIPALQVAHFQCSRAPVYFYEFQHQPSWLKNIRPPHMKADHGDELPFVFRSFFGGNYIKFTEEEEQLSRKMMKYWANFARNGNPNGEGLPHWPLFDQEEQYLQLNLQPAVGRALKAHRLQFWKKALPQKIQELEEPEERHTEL
Method: as §1

[5] = Kinetic analysis of AB23A hydrolysis in HLMs; assay type: in vitro ADME, human
Method: as §1

[6] = Kinetic analysis of AB23A hydrolysis in human plasma; assay type: in vitro ADME; conditions: 25% dilution
Method: as §1

[7] = Stability of AB23A in PBS under physiological conditions; assay type: physicochemical; conditions: pH 7.4 at 37°C
Method: AB23A and its hydrolytic metabolite were separated by ACQUITY UPLC I-Class plus system (Waters Corporation, Milford, United States) coupled with ACQUITY UPLC HSS T3 (100 mm × 2.1 mm, 1.8 μm, Waters, United States), and identified by using Q-Exactive quadru-pole-Orbitrap mass spectrometer. The mobile phases consisted of 0.1% formic acid in water (A) and acetonitrile (B) with the elution gradients were as follows: 0–2 min, 5% B, 2–4 min, 5%–30% B, 4–8 min, 30%–50% B, 8–10 min, 50%–80% B, 10–14 min, 80%–100%, 14–15 min, 100% B, 15–15.1 min, 100%–5% B, 15.1–16 min, 5% B. The flow rate was set at 0.35 mL/min, while the temperature of chromatographic column was maintained at 45°C. The mass range was set from m/z 80 to 1,200. Other MS conditions were as follows: Resolution and AGC target were set at 30000 and 1e^6, the maximum IT was 50 ms and loop count was set 10. (N) CE/stepped (N)CE was set 10, 20, 40 ev. All data were analyzed by PeakView 2.2 software and Thermo Xcalibur.
The incubation conditions were as follows: the classic incubation system included 100 mM potassium phosphate buffer (PBS, pH 7.4), enzyme sources, and AB23A. In all incubations, PBS and enzyme sources were pre-incubation at 37 °C for 3 min and the reaction was started by adding AB23A (the organic solvent content at most 1%). […]

[8] = design: method as in Liu et al. (2022); conditions: oral administration of Qingfei Paidu Decoction, ref Liu et al. (2022); cited from earlier work

## CC(=O)O[C@H](C[C@@H](C)C1=C2C[C@H](O)C3[C@@]4(C)CCC(=O)C(C)(C)C4CC[C@]3(C)[C@@]2(C)CC1)[C@H]1OC1(C)C (stereo partly shown) [AB23A, Alisol B 23-acetate]
[1]
  half-life: 68 ± 0.01 min
[2]
  half-life: 9.5 ± 0.05 min
[3]
  K m of AB23A hydrolysis: 190.80 ± 31.41 µM
[4]
  K m of AB23A hydrolysis: 58.96 ± 2.41 µM
[5]
  K m of AB23A hydrolysis: 41.18 ± 3.46 µM
  V max of AB23A hydrolysis: 4.77 ± 0.08 nmol/min/mg protein and 4.77 ± 0.08 ^a nmol/min/mg protein
[6]
  K m of AB23A hydrolysis: 237.10 ± 15.00 µM
  V max of AB23A hydrolysis: 4.536 ± 0.09 nmol/min/mL and 4.536 ± 0.09 ^b nmol/min/mL
[7]
  Stability in PBS: very stable
[8]
  Detection in mice plasma and liver: hardly detected
